Results on nine molecules are retold here after patent US4220795A, “Cyclobutyl substituted derivatives of prostaglandin analogs” (Miles Laboratories, Inc., priority 1978, dated 1980).

For experiment [1], the system named is female reproductive system. To be noted: cited from earlier work.
Experiment [2] concerns blood pressure (hypertensive rat). The experiment in a line: Effects on Blood Pressure in the Hypertensive Rat (Test E). To be noted: 1 mg/kg intraperitoneal, 2, 4, 6 and 8 hr. It counts as in vivo. The arrangement: key: 0: Not significant at any time interval; 1: Significant at one time interval; 2: Significant at two time intervals; 3: Significant at three time intervals; 4: Significant at all four intervals. The procedure: E. Evaluation of the Effects of Prostaglandin Analogs III on Blood Pressure in the Hypertensive Rat
The acute antihypertensive activity of test compounds is determined in rats made hypertensive by the procedure of Grollman (A. Proc. Soc. Exper. Biol. Med., 57:102, [1944]). Female rats weighing between 60 and 100 g are anesthetized with ether, the right kidney approached through a flank retroperitoneal incision, decapsulated and tied with a figure-of-eight ligature. The animals are left to recover and two weeks later are again anesthetized and the contralateral kidney removed. Four weeks after the second operation the rats are subjected to indirect blood pressure measurements and those showing systolic pressure values greater than 160 mmHg are selected for drug testing.
Blood pressure is measured in the tail with an inflatable occluding cuff placed at the base of the extremity and a pulse detector located distally. The cuff is inflated to approximately 300 mmHg and is slowly deflated until pulsations appear, indicating the level of systolic pressure; diastolic pressure is not recorded by this procedure. All measurements are carried out in unanesthetized, unsedated animals maintained in a warm environment during the recording procedure and for at least 6 hr before. In all cases, three pressure readings are obtained in succession and mean values are calculated thereof.
Experiments are carried out in groups of five hypertensive rats in which systolic pressure is determined immediately before and 2, 4, 6 and 8 hr after the intraperitoneal administration of the test compound at a dose of 1 mg/kg. Drugs are diluted from stock solutions with phosphate buffer (Lee et al., Prostaglandins 3:29 [1973]), so as to inject this quantity in a volume of 1 ml/kg. Changes from control blood pressure values are calculated for each interval both in mmHg and in per-cent, and evaluated for significance by means of Wilcoxon's signed rank test (Wilcoxon and Wilcox, Some rapid approximate statistical procedures, Lederle Laboratories, Pearl River [1964]).

The next experiment has as its system femoral blood flow. The experiment in a line: Effects on Femoral Blood Flow in the Dog (Test C). The conditions noted are these: anesthetized dog, intraarterial 0.001 to 10 mcg. In kind it is in vivo, dog (mongrel). The procedure: C. Evaluation of the Effects of Prostaglandin Analogs III on the Femoral Blood Flow in the Dog
The peripheral vasodilator or constrictor effects of test compounds were determined in mongrel dogs of either sex, weighing between 10 and 20 kg anesthestized intravenously with 35 mg/kg of sodium pentobarbital. An external iliac artery was dissected immediately above the femoral arch for a length of approximately 5 cm and a previously calibrated, non-connulating electromagnetic flowmeter sensor with a lumen between 2.5 and 3.5 mm was placed snugly around the vessel. Cannulas were placed in a branch of the artery arising distally to the location of the flowmeter sensor for intraarterial drug administrations, in the contralateral femoral artery for systemic blood pressure recordings and in the trachea for artificial respiration with room air. Femoral blood flow and systemic blood pressure were continuously recorded with an electromagnetic flowmeter and pressure transducer, respectively.
After an adequate control period, test compounds were injected intraarterially at one log-spaced doses ranging from 0.001 to 10 mcg., in a volume of 0.5 ml and at 5 to 10 min intervals. Maximum changes in bloodflow, as well as any variations in blood pressure, were tabulated for each dose in absolute values (ml/min and mmHg). The calculations were made taking as control values those existing immediately before administration of each dose. The direction of the observed change (+ for increase and - for decrease) was also noted. The dose changing bloodflow by 100 ml/min (ED100 ml/min) was calculated graphically and was used for scoring activity as follows: […]

For another experiment, the system named is rat uterus. Put plainly: Effects on the Rat Uterus (Test F). The conditions noted are these: rat uterus segments, 0.001 to 10.0 mcg/ml, 29° C. The procedure:
F. Evaluation of the Effects of Prostaglandin Analogs III on the Rat Uterus
The uterine stimulant effect of test compounds is determined in segments of uterus obtained from rats (140-160 g) pretreated subcutaneously with 1 mg/kg of diethylstibesterol 18 hr before the experiment. The tissues are placed in 10 ml chambers filled with de-Jalon solution at 29° C. and bubbled with 95% O2 and 5% CO2, and prepared for isometric recording with force displacement transducers. Preparations are stretched to an initial tension of 1 g and are left undisturbed for 30 min, after which two responses to 1 mcg/ml of carbachol added to the bath at a 10 min interval, are obtained (the value of the second response is recorded). Responses to increasing concentrations of the test compound (0.001 to 10.0 mcg/ml with one log intervals) are then recorded every 10 min. Preparations are washed four times after each response. All doses of drugs are administered in a 0.1 ml volume. Since it has been observed that the magnitude of the second response to carbachol, which is approximately 10% greater than the first, is close to the maximal response of the tissue, such value is taken as a measure of the sensititity of the particular segment. Responses to each concentration of the test compound are expressed in terms of percentage of the second response to carbachol and the ED50 (dose producing a response of 50% that of carbachol) is calculated graphically. Activity is scored according to the following scale: […]

The next experiment has as its system gastric secretion. The experiment in a line: Effects on Gastric Secretion in the Rat (Test B). It counts as in vivo. To be noted: pylorus ligated, s.c. 2 x 1.5 mg/kg, 4 hr. From the text:
B. Evaluation of the Effects of Prostaglandin Analogs III on Gastric Secretion in the Rat
A procedure based on that described by Lipmann (J. Pharm. Pharmacol., 21:335 [1968]) was used to assess the influence of test compounds on gastric secretion. Rats of one sex weighing 150 to 200 g were randomly divided into groups of six animals each and fasted for 48 hr previous to the experiments, water being available ad limitum. The animals were anesthetized with ether, the abdomen was opened through a midline incision and the pylorus was ligated. Test compounds were diluted from stock solution so as to administer a dose of 1.5 mg/kg in a volume equivalent to 1 ml/kg. Subcutaneous injections were applied immediately after surgery and again 2 hr later, so that a total dose of 3.0 mg/kg was administered. Dilutions were made with phosphate buffer (pH 7.38) as recommended by Lee et al. (Prostaglandins 3:29 [1973]), in order to insure adequate stability of drugs at the subcutaneous depot. Each compound was tested in one group of rats; an additional control group received only the vehicle.
Four hr after pyloric ligation the animals were killed with ether, the cardias ligated and the stomachs removed. The volume of gastric secretion was measured and the contents centrifuged at 5000 rpm for 10 min. Total acid in the supernatant was titrated against a 0.1 N sodium hydroxide solution and the amount expressed in mEq.
Volume and total acid values of the treated group were compared with those of the controls by the "T" test. Anti-secretory activity was scored according to the following scale: […]

The subject of the next experiment is blood pressure. Put plainly: Effects on Blood Pressure and Heart Rate in the Anesthetized Cat (Test D). In kind it is in vivo. To be noted: i.v. 0.01 to 10.0 mcg/kg, scored on hypotension. How it is done:
D. Evaluation of the Effects of Prostaglandin Analogs III on Blood Pressure and Heart Rate in the Anesthetized Cat
The acute effects of test compounds on blood pressure and heart rate were determined in cats of either sex anesthetized with a mixture of pentobarbital sodium (35 mg/kg, i.v.) and barbital sodium (100 mg/kg, i.v.). Cannulas were placed in the trachea to allow adequate spontaneous ventilation, in a femoral artery for blood pressure recording with a strain gage transducer, and in a saphenous vein for drug administration. Heart rate was recorded by means of a cardiotachometer driven by the R wave of the electrocardiogram. After a period of 10 min of stable recordings of blood pressure and heart rate, the test compound was administered intravenously at doses increasing from 0.01 to 10.0 mcg/kg, spaced one log and injected at 10 min intervals. All doses were injected in a volume of 0.1 ml/kg. Modifications of blood pressure and heart rate induced by the test compound were expressed both in absolute units (mmHg and beats/min) and as percent of values recorded immediately before administration of each dose. Biphasic responses were tabulated in the order in which they occur. The direction of the observed changes was also noted (+ for increase and - for decrease).
Activity of compounds in this test was judged only on the basis of the degree of hypotension observed. Thus, the ED50 mmHg (dose decreasing blood pressure by 50 mmHg) was calculated graphically and the compound scored according to the following scale: […]

The subject of experiment [3] is human platelet aggregation (collagen-induced, platelet rich plasma). The conditions noted are these: compared with compounds of Formula III; cited from earlier work.
Experiment [4] has as its system smooth muscle of the vas deferens. To be noted: mammalian male reproductive system; cited from earlier work.

Entries after “also recorded” stand apart in the source; their conditions may differ.

With `CCCCC[C@H](O)/C=C/[C@@H]1[C@@H](C/C=C\CCCC(=O)O)[C@@H](O)C[C@H]1O` [PGF2], the “effects on uterus, fertility, gestation and labor” value in experiment [1] is “exerts potent oxytocic effects in inducing labor”.
On to `CCC1CC([C@H](O)/C=C/C2C(O)CC(O)C2CCCCCCC(=O)OC)C1` (stereo partly drawn) [TR-4625, Methyl 16,18-methano-9β,11α,15S-trihydroxyprost-13E-en-1-oate], for which the “Activity value, Test E: Effects on Blood Pressure in Hypertensive Rat (blood pressure decrease)” value (“Activity value … (blood pressure decrease)” for short) in experiment [2] stood at 0. In the experiment on femoral blood flow, the “Activity value, Test C: Increase in Canidae Femoral Blood Flow (ED100 ml/min)” value (“Activity value, Test C: Increase” for short) is 0 (>10.0). The “Activity value, Test F: Effects on Rat Uterus (ED50, response of 50% that of carbachol)” value in the experiment with rat uterus was 0 (>10). The “Activity value, Test B: Inhibition of a Rodent Gastric Secretion (% decrease in acidity)” value in the experiment on gastric secretion is recorded as 0 (<26). The “Activity value, Test D: Increase in Normal Feline Blood Pressure and Heart Rate (ED50 mmHg)” value in the experiment with blood pressure was 0 (>10.1).
As for `CCCCC[C@H](O)/C=C/[C@@H]1[C@@H](C/C=C\CCCC(=O)O)[C@@H](O)C[C@H]1O` [PGF2α], the “effects on uterus, fertility, gestation and labor” value in experiment [1] is “has contragestational effects; also recorded: induces spontaneous abortions in early pregnancy”.
`CCC1CC(C)([C@@H](O)/C=C/C2C=CC(=O)C2CCCCCCC(=O)OC)C1` (stereo partly drawn) [TR-4695, Methyl 15S-hydroxy-16,18-methano-16-methyl-9-oxoprosta-10,13E-dien-1-oate]: in the experiment with rat uterus, the “Activity value, Test F: Effects on Rat Uterus (ED50, response of 50% that of carbachol)” value is on record as 0 (>10). The “Activity value, Test B: Inhibition of a Rodent Gastric Secretion (% decrease in acidity)” value in the experiment on gastric secretion is reported as 0 (<26).
For the molecule `CCC1CC([C@H](O)/C=C/C2C(O)CC(O)C2CCCCCCC(=O)OC)C1` (stereo partly drawn) [TR-4624, Methyl 16,18-methano-9α,1α,15S-trihydroxyprost-13E-en-1-oate], the “Activity value … (blood pressure decrease)” value in experiment [2] is 0. For the same molecule, in the experiment with femoral blood flow, the “Activity value, Test C: Increase” value is reported as 0 (>10.0). Also, the “Activity value, Test F: Effects on Rat Uterus (ED50, response of 50% that of carbachol)” value in the experiment with rat uterus is 0 (>10). Further, the “Activity value, Test B: Inhibition of a Rodent Gastric Secretion (% decrease in acidity)” value in the experiment on gastric secretion is on record as 0 (<26). The “Activity value, Test D: Increase in Normal Feline Blood Pressure and Heart Rate (ED50 mmHg)” value in the experiment on blood pressure is reported as 0 (>10.1).
Consider `CCC1CC([C@H](O)/C=C/C2C(O)CC(O)C2CCCCCCCO)C1` (stereo partly drawn) [TR-4627, 16,18-Methanoprost-13E-en-1,9β,11α,15S-tetraol], for which the “Activity value, Test F: Effects on Rat Uterus (ED50, response of 50% that of carbachol)” value in the experiment with rat uterus was 0 (>10). For the same molecule, the “Activity value, Test B: Inhibition of a Rodent Gastric Secretion (% decrease in acidity)” value with gastric secretion is 0 (<26).
As for `CCC1CC(C(/C=C/C2C=CC(=O)C2CCCCCCC(=O)OC)OC(C)=O)C1` (stereo not drawn) [TR-4281, Methyl 15RS-acetoxy-16,18-methano-9-oxoprosta-10,13E-dien-1-oate], the “Activity value, Test F: Effects on Rat Uterus (ED50, response of 50% that of carbachol)” value with rat uterus is given as 0 (>10). Besides, in the experiment with gastric secretion, the “Activity value, Test B: Inhibition of a Rodent Gastric Secretion (% decrease in acidity)” value was 0 (<26).
As to `CCCCC[C@H](O)/C=C/[C@H]1[C@H](O)CC(=O)[C@@H]1CCCCCCC(=O)O` [PGE1], the “inhibition of platelet aggregation, natural prostaglandins, in words” value in experiment [3] was “displays a similar activity”. Moreover, the “contraction of the vas deferens” value in experiment [4] was “contracts the smooth muscle of the vas deferens”.
For `CCC1CC([C@H](O)/C=C/[C@H]2[C@H](O)CC(=O)[C@@H]2CCCCCCC(=O)OC)C1` (stereo partly drawn) [TR-4249, Methyl 11α,15S-dihydroxy-16,18-methano-9-oxoprost-13E-en-1-oate], in experiment [2], the “Activity value … (blood pressure decrease)” value came to 0. Besides, in the experiment on femoral blood flow, the “Activity value, Test C: Increase” value is listed as 0 (>10.0). Besides, the EC50 with rat uterus (read-out: Activity value, Test F: Effects on Rat Uterus (ED50, response of 50% that of carbachol)) was more than 10 µg/mL. Besides, the ED (50 mmHg) with blood pressure (Felis catus, iv, read-out: Activity value, Test D: Normal Feline Blood Pressure and Heart Rate (ED50 mmHg)) is more than 0.0101 mg/kg.
